Results reported in patent US7566718B2, “Amine-linked pyridyl and phenyl substituted piperazine-piperidines with CXCR3 antagonist activity” (Schering Corporation, priority 2005, dated 2009).

Biological target: T1, human CXCR3 (N-delta 4) (Homo sapiens, UniProt P49682)
T1 construct: CD8 leader (N); Flag tag; expressed in transfected cells; membrane preparation
T1 sequence (P49682 5-368 limits assumed): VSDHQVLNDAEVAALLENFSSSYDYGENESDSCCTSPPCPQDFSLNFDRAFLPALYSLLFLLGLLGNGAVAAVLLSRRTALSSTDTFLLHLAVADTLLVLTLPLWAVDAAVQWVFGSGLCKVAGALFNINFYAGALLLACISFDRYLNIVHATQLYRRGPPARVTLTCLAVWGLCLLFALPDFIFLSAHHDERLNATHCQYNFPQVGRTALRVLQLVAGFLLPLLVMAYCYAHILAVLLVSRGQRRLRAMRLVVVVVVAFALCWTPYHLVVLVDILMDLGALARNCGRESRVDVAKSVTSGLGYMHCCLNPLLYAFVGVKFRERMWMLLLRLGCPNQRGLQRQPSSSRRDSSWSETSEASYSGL
Assay: Human CXCR3 (N-delta 4) scintillation proximity assay (SPA), [125I] IP-10 binding to Ba/F3-hCXCR3 membranes
Settings: IC50 rating; [125I] IP-10 displacement, human CXCR3; read-out: IC50
Description: The inventive compounds can readily be evaluated to determine activity at the CXCR3 receptors by known methods, such as, for example, development of a human CXCR3 (N-delta 4) Binding Assay.
The DNA encoding human CXCR3 was cloned by PCR using human genomic DNA (Promega, Madison, Wis.) as a template. The PCR primers were designed based on the published sequence of human orphan receptor GPR9 (1) with incorporated restriction sites, a Kozak consensus sequence, CD8 leader and Flag tag. The PCR product was subcloned into the mammalian expression vector pME18Sneo, a derivative of the SR-alpha expression vector (designated as pME18Sneo-hCXCR3 (N-delta 4).
IL-3-dependent mouse pro-B cells Ba/F3 were transfected by electroporation in 0.4 ml Dulbecco's PBS containing 4×10^6 cells with 20 μg of pME18Sneo-hCXCR3 (N-delta 4) plasmid DNA. Cells were pulsed at 400 Volts, 100 OHMs, 960 μFd. The transfected cells were under selection with 1 mg/ml G418 (Life Technologies, Gaithersburg, Md.). G418-resistant Ba/F3 clones were screened for CXCR3 expression by specific binding of [^125I] IP-10 (NEN Life Science Products, Boston, Mass.).
Ba/F3 cells expressing human CXCR3 (N-delta 4) were pelleted and resuspended in the lysis buffer containing 10 mM HEPES, pH 7.5 and Complete® protease inhibitors (1 tablet per 100 ml) (Boehringer Mannheim, Indianapolis, Ind.) at a cell density of 20×10^6 cells per ml. After 5 minute incubation on ice, cells were transferred to 4639 cell disruption bomb (Parr Instrument, Moline, Ill.) and applied with 1,500 psi of nitrogen for 30 minutes on ice. Large cellular debris was removed by centrifugation at 1,000×g. Cell membrane in the supernatant was sedimented at 100,000×g. The membrane was resuspended in the lysis buffer supplemented with 10% sucrose and stored at −80° C. Total protein concentration of the membrane was determined by BCA method from Pierce (Rockford, Ill.).
Human CXCR3 (N-Delta 4) Scintillation Proximity Assay (SPA):
For each assay point, 2 μg of membrane was preincubated for 1 hr with 300 μg wheat germ agglutinin (WGA) coated SPA beads (Amersham, Arlington Heights, Ill.) in the binding buffer (50 mM HEPES, 1 mM CaCl2, 5 mM MgCl2, 125 mM NaCl, 0.002% NaN3, 1.0% BSA) at room temperature. The beads were spun down, washed once, resuspended in the binding buffer and transferred to a 96-well Isoplate (Wallac, Gaithersburg, Md.). 25 pM of [^125I] IP-10 with tested compounds in a series of titration were added to start the reaction. After 3 hr reaction at room temperature, the amount of [^125I] IP-10 bound to the SPA beads was determined with a Wallac 1450 Microbeta counter.

IC50 [nM] | SMILES
> 100 | CCC(C)CN1CCC(N2C[C@H](C)N(c3ncc(Nc4c(NCC(F)(F)F)c(=O)c4=O)cc3Cl)C[C@H]2C)CC1 (some centres unmarked) [Compound 132]
> 100 | CC[C@H]1CN(c2ncc(NS(C)(=O)=O)cc2Cl)CCN1C1CCN(Cc2cc(Br)cs2)CC1 [Compound 44]
< 25 | CC[C@H]1CN(c2ncc(N)cc2Cl)CCN1C1CCN(Cc2ccc(Cl)cc2)CC1 [Compound 202]
< 25 | CC[C@H]1CN(c2ncc(Nc3c(NC4CC4)c(=O)c3=O)cc2Cl)CCN1C1CCN(Cc2ccc(OC(F)F)cc2)CC1 [Compound 74]
< 25 | CC[C@H]1CN(c2ncc(NC3=NS(=O)(=O)N=C3NC3CC3)cc2Cl)CCN1C1CCN(Cc2ccc(C(F)(F)F)cc2)CC1 [Compound 245]
< 25 | CC[C@H]1CN(c2ncc(NS(=O)(=O)N(C)C)cc2Cl)CCN1C1CCN(Cc2ccc(Cl)cc2F)CC1 [Compound 17]
> 100 | CC[C@H]1CN(c2ncc(NC3=NS(=O)(=O)N=C3NCC(C)(C)C)cc2Cl)CCN1C1CCN(Cc2ccc(Cl)cc2C#N)CC1 [Compound 278]
< 25 | CC[C@H]1CN(c2ncc(NC3=NS(=O)(=O)N=C3NC3CC3)cc2Cl)CCN1C1CCN(Cc2ccc(Cl)c(F)c2)CC1 [Compound 242]
< 25 | CC[C@H]1CN(c2ncc(NS(=O)(=O)CC)cc2Cl)CCN1C1CCN(C(N)c2ccc(Cl)cc2F)CC1 (some centres unmarked) [Compound 15]
> 100 | CC[C@H]1CN(c2ncc(NC3=NS(=O)(=O)N=C3NC(CO)C(N)=O)cc2Cl)CCN1C1CCN(Cc2ccc(Cl)cc2F)CC1 (some centres unmarked) [Compound 276]
> 100 | Cc1cc(OCc2ccccc2)cc(C)c1C(=O)N1CCC(N2C[C@H](C)N(c3ncc(Nc4c(NCC(F)(F)F)c(=O)c4=O)cc3Cl)C[C@H]2C)CC1 [Compound 140]
< 25 | CC[C@H]1CN(c2ncc(Nc3c(NC4CC4)c(=O)c3=O)cc2Cl)CCN1C1CCN(Cc2ccc(Br)cc2F)CC1 [Compound 79]
< 25 | CC[C@H]1CN(c2ncc(NS(C)(=O)=O)cc2Cl)CCN1C1CCN(Cc2ccc(Cl)cc2F)CC1 [Compound 7]
> 100 | C[C@@H]1CN(c2ncc(Nc3c(NCC(F)(F)F)c(=O)c3=O)cc2Cl)[C@@H](C)CN1C1CCN(Cc2cccc(Cl)c2Cl)CC1 [Compound 158]
> 100 | CC[C@H]1CN(c2ncc(Nc3c(NC4CC4)c(=O)c3=O)cc2Cl)CCN1C1CCN([C@H](C(=O)NC)c2ccc(Cl)cc2)CC1 [Compound 149]
< 25 | CC[C@H]1CN(c2ncc(NC3=NS(=O)(=O)N=C3N3CCC3)cc2Cl)CCN1C1CCN(Cc2ccc(Cl)cc2F)CC1 [Compound 254]
> 100 | CC[C@H]1CN(c2ncc(NS(C)(=O)=O)cc2Cl)CCN1C1CCN([C@@H](C(=O)NC)c2ccc(Cl)cc2)CC1 [Compound 54]
> 100 | CC[C@H]1CN(c2ncc(NC3=NS(=O)(=O)N=C3N(C)C)cc2Cl)CCN1C1CCN(Cc2ccc(F)c(F)c2)CC1 [Compound 272]
< 25 | CC[C@H]1CN(c2ncc(NC3=NS(=O)(=O)N=C3NC[C@H](C)O)cc2Cl)CCN1C1CCN(Cc2ccc(Cl)cc2F)CC1 [Compound 253]
< 25 | CC[C@H]1CN(c2ncc(NC(=O)C3CC3)cc2Cl)CCN1C1CCN(Cc2ccc(Cl)cc2F)CC1 [Compound 180]
> 100 | CCNC(=O)Nc1cnc(N2C[C@H](C)N(C3CCN(Cc4ccc(Cl)cc4F)CC3)C[C@H]2C)c(Cl)c1 [Compound 191]
< 25 | CC[C@H]1CN(c2ncc([N+](=O)[O-])cc2Cl)CCN1C1CCN([C@H](CO)c2ccc(Cl)cc2)CC1 [Compound 201]
< 25 | CC[C@H]1CN(c2ncc(Nc3c(NC4CC4)c(=O)c3=O)cc2Cl)CCN1C1CCN(Cc2ccc(OC(F)(F)F)cc2)CC1 [Compound 77]
> 100 | C[C@@H]1CN(c2ncc(Nc3c(NCC(F)(F)F)c(=O)c3=O)cc2Cl)[C@@H](C)CN1C1CCN(Cc2ccco2)CC1 [Compound 142]
> 100 | CC[C@H]1CN(c2ncc(NS(C)(=O)=O)cc2Cl)CCN1C1CCN(Cc2ccc(C(=O)OC)cn2)CC1 [Compound 42]
< 25 | CC[C@H]1CN(c2ncc(NS(C)(=O)=O)cc2Cl)CCN1C1CCN([C@H](CO)c2ccc(Cl)cc2)CC1 [Compound 4]
